Experimental data taken from patent publication US9757462B2, “Combined pharmaceutical preparation” (Sapporo Medical University, priority 2010, dated 2017).

Legend:
PANC-1 = test: 14C-fucose binding to cells; conditions: 14C-fucose 0-200 nM, 4° C., 1 hr
Procedure: (§1) In a 12-well culture plate, 1×10^5 cells were seeded and cultured overnight, and ^14C-fucose (specific activity: 55 mCi/mmol) diluted with BSA-PBS at a concentration of 0-200 nM was added to the cells and cultured at 4° C. for 1 hr. The cells were washed with cold BSA-PBS, lysed by 1% Triton X100/PBS-0.25% trypsin, and the radioactivity of the ^14C-fucose bound to the cell membrane was measured (FIGS. 2 and 3).

AsPC-1 = test: 14C-fucose binding to cells
Procedure: as §1
In another experiment, in a 12-well culture plate, 2×10^5 cells were seeded and cultured overnight, 10 nmol of ^14C-fucose (specific activity: 55 mCi/mmol) were added to the cells either singly or together with 1 pmol of fucose, and cultured at 4° C. for 1, 3, or 24 hr. The cells under each condition were washed with cold BSA-PBS, lysed by 1% Triton X100/PBS-0.25% trypsin, and the radioactivity of the ^14C-fucose was measured (FIG. 4).

AsPC-1 cells = test: Impact of excessive mannose on transfection efficiency of fucosylated liposomes (flow cytometry); assay type: cell-based; conditions: excessive amount of mannose
Procedure: Mannose is phosphorylated to mannose-6-phosphate by hexokinase, then converted to fructose-6 phosphate that is used in the glycolysis. However, 90% of the mannose taken into the body is excreted unchanged into urine within 30-60 min, and 99% of the remaining mannose is excreted within 8 hr.

[1] = cited from earlier work
[2] = Hematologic/biochemical analyses and adverse effects during the treatment period; assay type: in vivo, mouse
Procedure: In the preparation of subcutaneous model, AsPC-1 cells (2×10^6 cells) were seeded on the back side of a mouse (4-6 weeks old). Bioluminescence was measured from 0 to 4 days after injection, and the mice were randomly divided into multiple groups before starting the treatment. In vivo optical imaging was performed using Xenogen-IVIS-cooled […] optical system (Xenogen-IVIS). Bound CDD (such as CDDP in fucosylated liposomes) or free CDDP was in a dose of 2 mg/kg for each administration. Injection was performed twice in the first week, then twice in the second and third weeks. All the mice used […], sacrificed on the next day of the final injection prior to the final measurement of bioluminescence.
Samples were collected from mouse orbital venous plexus. In the table, WBC represents white blood cell count, RBC represents red blood cell, count, Hb represents hemoglobin concentration, PLT represents Platelet count, AST represents aspartate aminotransferase concentration, […], Bil represents bilirubin concentration, BS represents blood glucose, Cr represents creatinine concentration.
In pancreatic cancer model mice (AsPC-1), effects of suppression of tumor growth by CDDP, CDDP-encapsulated liposomes (F0), and CDDP-encapsulated liposomes (F50) were compared (FIG. 20). […] Tumor volumes were measured at 4, 8, 11, 15, 18 and 22 days after the transplant.

Row | SMILES | binding of fucose to cells (PANC-1) | binding of 14C-fucose in competition with non-labeled fucose (AsPC-1; 4° C. for 1, 3, or 24 hr) | binding of fucose to cells (AsPC-1; 14C-fucose 0-200 nM, 4° C., 1 hr) | affinity of fucose binding (AsPC-1; AsPC-1 compared with PANC-1) | impact on the transfection efficiency of fucosylated liposomes (AsPC-1 cells) | mannose taken into the body excreted unchanged into urine ([1]; within 30-60 min) | remaining mannose excreted ([1]; within 8 hr) | adverse effect ([2]; 1 mg of mannose for a mouse) | adverse effects (as shown in Table 5) ([2]; treatment period)
1 | C[C@H](O)[C@@H](O)[C@@H](O)[C@H](O)C=O [fucose, L-fucose] | binds to AsPC-1 and PANC-1 via a receptor-like mechanism | inhibited by non-labeled fucose | binds to AsPC-1 and PANC-1 via a receptor-like mechanism | affinity is higher in the fucosylated sugar chain high-producing cell line AsPC-1 |  |  |  |  | 
2 | O=C[C@@H](O)[C@@H](O)[C@H](O)[C@H](O)CO [mannose, D-mannose] |  |  |  |  | no apparent impact was observed | 90% | 99% | no apparent adverse effect was observed | does not have any adverse effects
